In US8697637B2, “Antimicrobial peptides of the cecropin family and therapeutic uses thereof” (Institut de Recherche pour le Developpement (IRD), priority 2010, dated 2014):
≈ marks a conversion by molar mass, not a printed value. Where a SMILES comes first, the peptide text is derived from it.

Key:
Format in all cases: cell-based
[1] = tested on: Escherichia coli (Gram negative); settings: E. coli, LB medium, 37° C., 24 hours, complete inhibition of growth
Method: (§1) The bacteria Escherichia coli (Gram negative) and Micrococcus luteus (Gram positive) are cultivated in an LB (Luria-Bertani) culture medium with and without the peptides GK36 and MK61 to be tested. The bacterial growth is checked after incubation for one night at 37° C. by measuring the change in the absorbance value at 600 nanometres (A600) with the aid of a microplate spectrophotometer. The peptides MK61 and GK36 are incubated for 24 hours with the Gram negative and Gram positive bacteria. The minimum inhibitory concentration (MIC) of the synthetic peptides GK36 and MK61 represents the lowest peptide concentration that is sufficient to inhibit bacterial growth completely.
(§2) The results obtained are shown in FIG. 1 for the bacterium Escherichia coli (Gram negative) and in FIG. 2 for the bacterium Micrococcus luteus (Gram positive).

[2] = tested on: Micrococcus luteus (Gram positive); assay: Antibacterial test, bacterial growth in LB medium (A600), MIC; settings: 37° C., 24 hours, complete inhibition of growth
Method: as §1, §2

[3] = tested on: dengue virus serotype 2 "DENV-2"; assay: Inhibition of the infection of dendritic cells by the dengue virus (real-time PCR); settings: peptide at 2.5 μg/ml, DENV-2 MOI 0.4, 48 hours
Method: The dendritic cells are incubated for 3 hours at 37° C. in the presence of the dengue virus (they are infected at an “MOI” (“multiplicity of infection”) of 0.4) with and without the peptides MK61 and GK36 to be tested, which are prepared at concentrations of 2.5 μg/ml and 12 μg/ml for MK61 and 2.5 μg/ml for GK36. The supernatant is then withdrawn and the cells are or are not brought into contact with peptide for 48 hours.
Real-time PCR analyses are then carried out. The cell viability is evaluated by flow cytometry, and no cell toxicity is observed.

DENV-1 = assay: Inhibition of the infection of C6/36 cells by the dengue virus (RT-PCR); settings: C6/36 cells of Aedes albopictus, 5 or 10 μg/ml, 12 or 24 hours, RT-PCR bands
Method: (§3) The C6/36 cells of Aedes albopictus mosquitoes are incubated for one hour at 4° C. with the various dengue viruses ((serotype 1) “DENV-1” or (serotype 2) “DENV-2” or (serotype 3) “DENV-3” or (serotype 4) “DENV-4”) (with “PFUs” (“plaque forming units”) of 1). The cells are then washed three times and incubated for 12 hours or 24 hours at 28° C. in the presence or absence of the peptides GK36 and MK61 to be tested, which are each prepared at concentrations of 5 μg/ml or 10 μg/ml.
(§4) RT-PCR analyses are then carried out on the cell pellets in order to detect the presence of the dengue virus.

DENV-2 = assay: as above; settings: C6/36 cells of Aedes albopictus, 5 or 10 μg/ml, 12 or 24 hours, RT-PCR bands
Method: as §3, §4

DENV-3 = assay: as above; settings: C6/36 cells of Aedes albopictus, 5 or 10 μg/ml, 12 or 24 hours, RT-PCR bands
Method: as §3, §4

DENV-4 = assay: as above; settings: C6/36 cells of Aedes albopictus, 5 or 10 μg/ml, 12 or 24 hours, RT-PCR bands
Method: as §3, §4

CHIKV-147-2 GFP virus = assay: Inhibition of the infection of HEK-293T cells by chikungunya virus (GFP, flow cytometry); settings: MOI 1, peptide at 10, 50 and 80 μg/ml, 48 hours
Method: The cells, which come from the human cell line HEK-293T (human embryonic kidney 293), are incubated for 2 hours at 37° C. in the presence of CHIKV-147-2 GFP virus (they are infected at an “MOI” of 1) with and without the peptides GK36 and MK61 to be tested, which are each prepared at concentrations of 10 μg/ml, 50 μg/ml and 80 μg/ml. The supernatant is then withdrawn and the cells are or are not brought into contact with peptides for 48 hours. The percentage of cells infected corresponds to the percentage of GFP (“green fluorescent protein”) cells visualised by flow cytometry (10,000 cells were counted per condition).

parasite = assay: Antiparasitic activity (general statement); settings: general statement in the description

Question: Which results are given for `CC[C@H](C)[C@H](NC(=O)CNC(=O)[C@@H](NC(=O)[C@@H](NC(=O)[C@@H](NC(=O)[C@@H]1CCCN1C(=O)[C@H](CC(C)C)NC(=O)[C@H](C)NC(=O)[C@H](CCCCN)NC(=O)[C@H](CCC(=O)O)NC(=O)[C@H](CO)NC(=O)[C@H](C)NC(=O)[C@H](CCCCN)NC(=O)[C@H](Cc1ccccc1)NC(=O)[C@@H](NC(=O)[C@H](CCCNC(=N)N)NC(=O)[C@H](CCCCN)NC(=O)CNC(=O)[C@H](C)NC(=O)CNC(=O)[C@H](CCC(=O)O)NC(=O)[C@H](CC(C)C)NC(=O)[C@H](CCCCN)NC(=O)[C@H](CCCCN)NC(=O)CNC(=O)[C@H](CC(C)C)NC(=O)[C@H](CCCCN)NC(=O)[C@H](CCCCN)NC(=O)[C@H](CC(C)C)NC(=O)CNC(=O)CN)C(C)C)C(C)C)C(C)C)C(C)C)C(=O)N[C@@H](CCCCN)C(=O)N[C@@H](C)C(=O)N[C@H](C(=O)NCC(=O)N[C@@H](CCCCN)C(=O)O)[C@@H](C)CC` [GK36] (H-GGLKKLGKKLEGAGKRVFKASEKALPVVVGIKAIGK-OH; N-terminus and C-terminus assumed)?
Answer: minimum inhibitory concentration (MIC) [1]: 0.6 µM (≈ 2.21 µg/mL); minimum inhibitory concentration (MIC) [2]: 10 µM (≈ 36.8 µg/mL); inhibition of the infection of the dendritic cells [3]: 35%; inhibition of the infection of C6/36 cells by dengue-1 virus (DENV-1): inhibit the infection; inhibition of the infection of C6/36 cells by dengue-2 virus (DENV-2): inhibit the infection; inhibition of the infection of C6/36 cells by dengue-3 virus (DENV-3): inhibit the infection; inhibition of the infection of C6/36 cells by dengue-4 virus (DENV-4): inhibit the infection; inhibition of the infection of HEK-293T cells (CHIKV-147-2 GFP virus): inhibits the infection of the HEK-293T cells; antiparasitic activity (parasite): does not exhibit antiparasitic activity
